In patent publication US20220127335A1, “TETRAMERIC PROTEIN SCAFFOLDS AS NANO-CARRIERS OF THERAPEUTIC PEPTIDES FOR TREATING CANCER AND OTHER DISEASES” (UNIVERSITY OF MARYLAND, BALTIMORE, priority 2019, published 2022):
Like-named read-outs stand apart in the source and are kept apart here.

Tests used:
HCT 116 p53^+/+ cells = assay: Cellular uptake by flow cytometry and confocal microscopy; assay type: cell-based
Procedure: HCT 116 p53^+/+ cells were seeded in a 12-well plate at a density of 30,000 cells/well, cultured for 24 h, and treated with peptide or protein at 10 μM for 4 h before flow cytometric analysis.
Hoechst 33342 blue dye was used for nuclei staining.
Peptide/protein internalization and cytosolic release were also examined using both confocal microscopy and flow cytometry.
Cationic cell penetrating peptides as a carrier are known to promote cellular uptake of cargos primarily through the […], which is inhibited by heparin but not by amiloride. To better understand the mechanism of cellular uptake of ^PMIBcr/Abl-R6, confocal microscopic analysis was performed on cells treated with heparin or amiloride.

[1] = system: HCT116 p53^+/+ xenograft tumors; assay: Tumor growth inhibition in nude mouse xenograft model; assay type: in vivo, BALB/c nude mice; conditions: 5 mg/Kg subcutaneous every other day, 3 weeks
HCT116 p53^+/+ cells [2] = assay: Cell viability (CCK-8), HCT116 p53^+/+; assay type: cell-based; conditions: 48 h after treatment, 1.56 μM to 50 μM
Procedure: (§1) Following a 2-h incubation with CCK-8 reagents, absorbance values at 450 nm were measured on a microplate reader, and percent cell viability was calculated as (Atreatment−Ablank)/(Acontrol−Ablank)×100%. The data are the means of three independent assays.
Three independent assays were performed.

[3] = system: p53, p21, PUMA, NOXA in HCT116 p53^+/+ cells; assay: Western blotting of p53, p21, PUMA, NOXA; assay type: cell-based; conditions: 12.5 μM, 48 h
Procedure: The primary antibodies were from Santa Cruz Biotechnology (p53), Calbiochem (p21, PUMA and NOXA) and Sigma-Aldrich (β-actin), and secondary antibodies conjugated with horseradish peroxidase from Calbiochem.
T-test was performed for statistical analysis, * standing for p<0.05, *** for p<0.001. The data are the means±SD of three independent Western blotting assays.

[4] = system: HCT116 p53^+/+ xenograft tumors; assay: Histopathology of xenograft tumors (H&E and TUNEL staining); assay type: in vivo, BALB/c nude mice; conditions: tumors after three-week treatment, 5 mg/Kg
Text: Representative tumors from each treatment group were fixed with formaldehyde, dehydrated and sliced into 5 μm-thick sections, and subjected to H&E staining according to standard protocols (scale bar: 50 μm).
FIG. 7F is the terminal deoxynucleotidyl transferase dUTP nick end labeling (TUNEL) assay to stain fragmented DNA in apoptotic cells (scale bar: 50 μm).

[5] = Complete blood cell analysis after 21-day treatment; conditions: end of three-week treatment
Procedure: (§2) Statistical analysis was performed using T-test, NS standing for no significant difference.

[6] = end of three-week treatment
[7] = biological target: the molecule itself; assay: self-association into tetramer; SEC, DLS, fluorescence polarization, SAXS
HCT116 p53^−/− cells = assay: Cell viability (CCK-8), HCT116 p53^−/−; conditions: 48 h after treatment
Procedure: as §1

[8] = mouse, in vivo
Procedure: as §2

HCT116 p53^+/+ cells [9] = assay: Apoptosis by flow cytometry (annexin V / propidium iodide); assay type: cell-based; conditions: 12.5 μM, 48 h
Procedure: Apoptosis was detected using a standard apoptotic kit from Biolegend, including APC labeled anti-annexin V antibody and a propidium iodide solution.
Three independent FACS assays were performed, and data are shown as the means±SD (n=3). p values were calculated by t-test (***, p<0.001).

[10] = biological target: T1, MDM2 (p53-binding domain) (UniProt Q00987 25-109, limits assumed); assay: ITC, MicroCal ITC 200, 25° C., 20 mM Tris/HCl pH 7.4
T1 construct: The ITC legends say only 'MDM2'
T1 sequence (Q00987 25-109 limits assumed): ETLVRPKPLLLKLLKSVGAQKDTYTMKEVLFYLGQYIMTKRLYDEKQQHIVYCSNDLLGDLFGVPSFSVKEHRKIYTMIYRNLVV

Row | Molecule | effect on tumor growth [1] | cell viability / growth inhibition (HCT116 p53^+/+ cells [2]) | expression of p21, PUMA and NOXA (Western blotting) [3] | p53 level (Western blotting) [3] | necrotic and apoptotic tumor cells (H&E and TUNEL) [4] | toxicity to liver and kidney tissues (H&E) [6] | blood cell counts (WBC, LYM, MID, GRN, RBC, PLT) versus mock-treated control [8] | also measured
1 | ^PMIBcr/Abl-R6: Bcr/Abl tetramerization domain with PMI grafted in place of residues 5-16, C-terminally extended by Arg-repeating hexapeptide (R6); 78 residues, tetramer | significantly inhibited it | dose-dependent growth inhibition | upregulation | significantly stabilized p53 | massive necrotic and apoptotic tumor cells | – | – | cellular uptake (flow cytometry) (HCT 116 p53^+/+ cells; BDP TR-labeled, 10 μM, 4 h): much more efficiently; cytosolic distribution (confocal microscopy) (HCT 116 p53^+/+ cells; BDP TR-labeled, 10 μM, 4 h): cytosolic distribution; effect of amiloride on internalization (HCT 116 p53^+/+ cells; amiloride 3 mM, 12 h before addition): little effect; effect of heparin on internalization (HCT 116 p53^+/+ cells; heparin sodium 5 mM, 12 h before addition): almost completely blocked it
2 | COc1ccc(C2=N[C@@H](c3ccc(Cl)cc3)[C@@H](c3ccc(Cl)cc3)N2C(=O)N2CCNC(=O)C2)c(OC(C)C)c1 [Nutlin-3, reference compound] | – | – | upregulation | significantly stabilized p53 | – | no overt toxicity | – | blood cell counts (WBC, LYM, MID, GRN, RBC, PLT) versus mock-treated control [5]: no statistically significant difference
3 | ^PMIBcr/Abl-R6 (designed binder, Bcr/Abl tetramerization domain with PMI grafted in place of residues 5-16 and a C-terminal Arg hexapeptide (R6); 78 residues, chemically synthesized by native chemical ligation; Exists as a tetramer in aqueous buffer) MVDPTSFAEYWALLSPDSEPPRMELRSVGDIEQELERAKASIRRLEQEVNQERFRMIYLQTLLAKEKKSYDRRRRRRR | – | – | – | – | – | – | – | binding result [7]: binds
4 | Bcr/Abl-R6 (other, Negative control scaffold without the PMI graft: Bcr/Abl tetramerization domain with C-terminal R6; Chemically synthesized; tetramer in aqueous buffer) MVDPVGFAEAWKAQFPDSEPPRMELRSVGDIEQELERAKASIRRLEQEVNQERFRMIYLQTLLAKEKKSYDRRRRRRR | no effect on tumor growth | neither PMI nor Bcr/Abl-R6 had any effect on the viability | – | – | lack of activity | no overt toxicity | no statistically significant difference | cell viability (HCT116 p53^−/− cells): neither PMI nor Bcr/Abl-R6 had any effect on the viability; apoptosis (FACS) (HCT116 p53^+/+ cells [9]): largely unaffected; binding result [10]: no binding
5 | ^PMIBcr/Abl: Bcr/Abl tetramerization domain with PMI grafted in place of residues 5-16, without R6; negative control (protein) MVDPTSFAEYWALLSPDSEPPRMELRSVGDIEQELERAKASIRRLEQEVNQERFRMIYLQTLLAKEKKSYDR | marginally active | – | – | – | partial activity | no overt toxicity | no statistically significant difference | –
